Assays:
[1] = Rate of dissolution in H2O at 25° C. of rebaudioside A polymorph and amorphous forms; format: physicochemical
Description: The purification of rebaudioside A by crystallization as described above results in the formation of at least three different polymorphs: Form 1: a rebaudioside A hydrate; Form 2: an anhydrous rebaudioside A; and Form 3: a rebaudioside A solvate. In addition to the at least three polymorph forms of rebaudioside A, the purification of rebaudioside A may result in the formation of an amorphous form of rebaudioside A, Form 4. The aqueous organic solution and temperature of the purification process influence the resulting polymorph and amorphous forms in the substantially pure rebaudioside A composition. FIGS. 1-5 are exemplary powder x-ray diffraction (XRPD) scans of the polymorph and amorphous forms of rebaudioside A: Form 1 (hydrate), Form 2 (anhydrate), Form 3A (methanol solvate), Form 3B (ethanol solvate), and Form 4 (amorphous), respectively.

[2] = format: physicochemical
Experimental: A solution of rebaudioside A (>97% pure by HPLC) was prepared in double distilled water (12.5 gm in 50 mL, 25% concentration) by stirring the mixture at 40° C. for 5 minutes. An amorphous form of rebaudioside A was formed by immediately using the clear solution for spray drying with the Lab-Plant spray drier SD-04 instrument (Lab-Plant Ltd., West Yorkshire, U.K.). The solution was fed through the feed pump into the nozzle atomizer which atomized it into a spray of droplets with the help of a constant flow of nitrogen/air. […] This dry powder (11-12 g, H2O 6.74%) was discharged continuously from the drying chamber and was collected in a bottle.

Row | Substance | Rate of dissolution in H2O at 25° C. ([1]; graded Very low) | Rate of dissolution in H2O at 25° C. ([1]; graded Intermediate or High) | solubility in water at room temperature [2] [%]
1 | rebaudioside A [Form 1] | Very low (<0.2%/60 %/60 minutes |  | 
2 | rebaudioside A [Form 2] |  | Intermediate (<30%/5 %/5 minutes | 
3 | rebaudioside A [Form 3] |  | High (>30%/5 %/5 minutes | 
4 | rebaudioside A [Form 4] |  | High (>35%/5 %/5 minutes | > 35.0

— patent US20080107787A1, “Anti-Diabetic Composition with High-Potency Sweetener” (THE COCA-COLA COMPANY, priority 2006, published 2008)
